Experimental data taken from US20250026765A1, “SPIROHETEROCYCLE DERIVATIVE HAVING SEROTONIN RECEPTOR BINDING ACTIVITY” (Shionogi & Co., Ltd., priority 2021, published 2025).

These compounds were tested against human recombinant 5-HT2A receptor (Homo sapiens (Human), UniProt P28223) (assay: 5-HT2A receptor binding inhibition test ([3H]-Ketanserin)). Conditions: Jump-In HEK cell membrane, 25° C. 1.5 hours, read-out: h-5-HT2A Ki.
Method: Test Example 1: 5-HT2A Receptor Binding Inhibition Test
(§1) (Each Experimental Condition)
Cell membrane: 15 μg of Jump-In HEK cell membrane (expressing human recombinant 5-HT2A receptor) per well
(§2) Assay buffer: Tris-HCl 50 mmol/L (pH 7.4) containing NaCl 120 mmol/L, MgCl2·6H2O 1 mmol/L, KCl 5 mmol/L, 0.1% BSA and CaCl2 2 mmol/L
Radioactive ligand: [^3H]-Ketanserin with a final concentration of around Kd value calculated by the following method
Non-specific ligand: Serotonin HCl with a final concentration of 500 μmol/L
(§3) The Kd value is calculated when the lot of cell membrane is changed. In advance, 0.5 μL of a 1 mmol/L compound for non-specific binding calculation dissolved in DMSO or DMSO is dispensed into a microplate, and the cell membrane is diluted with an Assay buffer. The radioactive ligand solution is serially diluted and the count is confirmed with a liquid scintillator. Assay buffer containing diluted cell membrane is dispensed into a microplate at 50 μL/well. Then, the radioactive ligand solution is dispensed into a microplate at 50 μL/well, and the plate is sealed. It is allowed to stand at room temperature (25° C.) for 1.5 hours. During this period, 50 mmol/L Tris-HCl (pH 7.4) is dispensed into a GF/B UniFilter plate at 50 μL/well and allowed to stand at 4° C. for 1 hour or longer. After that, filtration is performed with Cell harvester (PerkinElmer). The radioactive ligand solution is dispensed into an empty well of the GF/B UniFilter plate at 10 μL/well. After the GF/B UniFilter plate is dried at room temperature, MicroScinti 20 is dispensed into the GF/B UniFilter plate at 50 μL/well to seal the plate. The GF/B UniFilter plate is allowed to stand overnight at room temperature. The radioactivity of [^3H]-Ketanserin bound to the 5-HT2A receptor is measured using Microbeta2 (PerkinElmer) at a measurement time of 1 min/well. The Saturation curve is drawn from the measured value, and the Kd value is calculated from the slope of the Scatchard Plot.
(§4) (Binding Test of the Compound According to the Present Invention)
In advance, 0.5 μL of the compound solution dissolved in DMSO is dispensed into a microplate, and the cell membrane and the hot ligand are diluted with Assay buffer, respectively. Then, the Assay buffer containing the diluted cell membrane is dispensed into a microplate at 50 μL/well. Then, the radioactive ligand solution is dispensed into a microplate at 50 μL/well, and the plate is sealed. Then, it is allowed to stand at room temperature (25° C.) for 1.5 hours. During this period, 50 mmol/L Tris-HCl (pH 7.4) is dispensed into a GF/B UniFilter plate at 50 μL/well and allowed to stand at 4° C. for 1 hour or longer. After that, filtration is performed with Cell harvester (PerkinElmer). After the GF/B UniFilter plate is dried at room temperature, MicroScinti 20 is dispensed into the GF/B UniFilter plate at 50 μL/well to seal the plate. The GF/B UniFilter plate is allowed to stand overnight at room temperature. The radioactivity of [^3H]-Ketanserin bound to the 5-HT2A receptor is measured using Microbeta2 (PerkinElmer) at a measurement time of 1 min/well. The non-specific binding is calculated from the radioactivity of [^3H]-Ketanserin in the presence of 500 μmol/L Serotonin HCl which is the unlabeled ligand, and the total binding is calculated from the radioactivity of [^3H]-Ketanserin in the absence of the compound according to the present invention (Vehicle). Finally, the Ki value is calculated from the dose-response curve.
(§5) (The binding activity of the compound according to the present invention is calculated from the following binding inhibition rate (%).)
(§6) [formula] • a; mean cpm of non-specific binding • b; average cpm of total binding • c; cpm in the presence of the test compound

Sequence of human recombinant 5-HT2A receptor (P28223 whole entry): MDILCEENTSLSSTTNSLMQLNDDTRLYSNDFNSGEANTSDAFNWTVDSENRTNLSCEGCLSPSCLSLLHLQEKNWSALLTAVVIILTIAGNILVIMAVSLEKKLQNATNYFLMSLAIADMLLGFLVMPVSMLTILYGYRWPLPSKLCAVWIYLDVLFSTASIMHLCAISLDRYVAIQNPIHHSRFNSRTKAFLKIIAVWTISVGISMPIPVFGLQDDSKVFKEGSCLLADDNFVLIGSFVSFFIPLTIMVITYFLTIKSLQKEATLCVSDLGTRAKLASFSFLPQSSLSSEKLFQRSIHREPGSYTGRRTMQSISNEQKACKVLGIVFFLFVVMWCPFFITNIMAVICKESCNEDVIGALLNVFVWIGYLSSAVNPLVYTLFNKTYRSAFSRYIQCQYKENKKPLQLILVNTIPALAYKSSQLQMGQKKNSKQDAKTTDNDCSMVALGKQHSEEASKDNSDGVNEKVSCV

Row | Compound | Ki [nM]
1 | CC(C)COc1ccc(CN(Cc2cocn2)C2=NOC3(CCN(C)CC3)N2)cc1 [Compound I-031] | 10 to 100
2 | Cc1nc(CN(Cc2ccc(OCC(C)C)cc2)C2=NOC3(CCN(C)CC3)N2)cs1 [Compound I-017] | < 10
3 | COc1ccc(CNC2=NOC3(CCN(C)CC3)N2Cc2ccc(F)cc2)cc1 [Compound I-006] | 100 to 500
4 | CC(C)COc1ccc(CCC2=NOC3(CCN(C)CC3)N2Cc2ccc(F)cc2)cc1 [Compound I-008] | 10 to 100
5 | CCCCOc1ccc(CN(Cc2cnn(C)n2)C2=NOC3(CCN(C)CC3)N2)c(F)c1 [Compound I-112] | < 10
6 | Cc1nc(CN(Cc2ccc(OCC3CC3)cc2)C2=NOC3(CCN(C)CC3)N2)co1 [Compound I-079] | < 10
7 | Cc1nc(CN(Cc2ccc(OCC(F)(F)C(F)F)cc2)C2=NOC3(CCN(C)CC3)N2)co1 [Compound I-064] | < 10
8 | CCCCc1ccc(CN(Cc2coc(C)n2)C2=NOC3(CCN(C)CC3)N2)cc1 [Compound I-077] | < 10
9 | Cc1cc(CN(Cc2ccc(OCC(C)C)cc2)C2=NOC3(CCN(C)CC3)N2)co1 [Compound I-070] | < 10
10 | Cc1ccc2cc(CN(Cc3coc(C)n3)C3=NOC4(CCN(C)CC4)N3)sc2c1 [Compound I-101] | < 10
11 | Cc1nc(CN(Cc2ccc(OCC(C)C)cc2)C2=NOC3(CCNCC3)N2)co1 [Compound I-048] | < 10

The remaining lines, values ahead:

Row | Ki [nM] | Compound
12 | 100 to 500 | Cc1nc(CN(Cc2ccc(OCC(C)C)cc2)C2=NC3(CCN(C)CC3)ON2C)co1 [Compound I-052]
13 | < 10 | Cc1coc(CN(Cc2ccc(OCC(C)C)cc2)C2=NOC3(CCN(C)CC3)N2)n1 [Compound I-054]
14 | 10 to 100 | COc1ccc2oc(CN(Cc3coc(C)n3)C3=NOC4(CCN(C)CC4)N3)nc2c1 [Compound I-088]
15 | < 10 | Cc1ccc(CN(Cc2ccc(OCC(C)C)cc2)C2=NOC3(CCNCC3)N2)cn1 [Compound I-078]
16 | 10 to 100 | CC(C)COc1ccc(CN(Cc2ccn(C)n2)C2=NC(=O)C3(CCN(C)CC34CC4)N2)cc1 (racemic) [Compound I-043]
17 | 10 to 100 | CCOCc1ccc(CN(Cc2coc(C)n2)C2=NOC3(CCN(C)CC3)N2)cc1 [Compound I-124]

What follows are compounds tested against human recombinant 5-HT2C receptor (Homo sapiens (Human), UniProt P28335) (assay: 5-HT2C receptor binding inhibition test ([3H]-Mesulergine)). Conditions: Jump-In HEK cell membrane, 37° C. 2 hours, read-out: h-5-HT2C Ki.
Method: Test Example 2: 5-HT2C Receptor Binding Inhibition Test
as §1
Cell membrane: 0.5 μg of Jump-In HEK cell membrane (expressing human recombinant 5-HT2C receptor) per well
as §2
Radioactive ligand: [^3H]-Mesulergine with a final concentration of around Kd value calculated by the following method
Non-specific ligand: Serotonin HCl with a final concentration of […]
as §3, with “37° C.” for “room temperature (25° C.)”, “2” for “1.5”, “[^3H]-Mesulergine” for “[^3H]-Ketanserin”, “5-HT2C” for “5-HT2A”
as §4
In advance, 0.5 μL of the compound solution dissolved in DMSO is dispensed into a microplate, and the cell membrane and the hot ligand are diluted with Assay buffer, respectively. Then, the Assay buffer containing the diluted cell membrane is dispensed into a microplate at 50 μL/well. Then, the radioactive ligand solution is dispensed into a microplate at 50 μL/well, and the plate is sealed. Then, it is allowed to stand at 37° C. for 2 hours. During this period, 50 mmol/L Tris-HCl (pH 7.4) is dispensed into a GF/B UniFilter plate at 50 μL/well and allowed to stand at 4° C. for 1 hour or longer. After that, filtration is performed with Cell harvester (PerkinElmer). After the GF/B UniFilter plate is dried at room temperature, MicroScinti 20 is dispensed into the GF/B UniFilter plate at 50 μL/well, and the plate is sealed. The GF/B UniFilter plate is allowed to stand overnight at room temperature. The radioactivity of [^3H]-Mesulergine bound to the 5-HT2C receptor is measured using Microbeta2 (PerkinElmer) at a measurement time of 1 min/well. The non-specific binding is calculated from the radioactivity of […] in the presence of 500 μmol/L Serotonin HCl which is the unlabeled ligand, and the total binding is calculated from the radioactivity of [^3H]-Mesulergine in the absence of the compound according to the present invention (Vehicle). Finally, the Ki value is calculated from the dose-response curve.
as §5, §6

Sequence of human recombinant 5-HT2C receptor (P28335 33-458): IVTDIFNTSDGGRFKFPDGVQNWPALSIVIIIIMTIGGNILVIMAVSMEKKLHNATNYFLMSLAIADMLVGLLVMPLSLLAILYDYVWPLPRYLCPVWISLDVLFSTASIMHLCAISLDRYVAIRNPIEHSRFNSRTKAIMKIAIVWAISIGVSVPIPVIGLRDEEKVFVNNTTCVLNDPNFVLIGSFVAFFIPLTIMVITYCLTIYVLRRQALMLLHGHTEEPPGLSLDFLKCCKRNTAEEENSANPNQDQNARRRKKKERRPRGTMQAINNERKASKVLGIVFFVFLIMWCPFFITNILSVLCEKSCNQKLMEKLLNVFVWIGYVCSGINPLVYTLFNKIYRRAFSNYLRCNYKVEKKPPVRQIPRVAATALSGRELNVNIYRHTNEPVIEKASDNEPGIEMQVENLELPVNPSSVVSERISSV

Row | Compound | Ki [nM]
18 | CC(C)COc1ccc(CN(Cc2cocn2)C2=NOC3(CCN(C)CC3)N2)cc1 [Compound I-031] | 10 to 100
19 | Cc1nc(CN(Cc2ccc(OCC(C)C)cc2)C2=NOC3(CCN(C)CC3)N2)cs1 [Compound I-017] | < 10
20 | Cc1nc(CN(Cc2ccc(OCC(C)C)cc2)C2=NC3(CCN(C)CC3)ON2C)co1 [Compound I-052] | 100 to 500
21 | Cc1coc(CN(Cc2ccc(OCC(C)C)cc2)C2=NOC3(CCN(C)CC3)N2)n1 [Compound I-054] | 10 to 100
22 | COc1ccc2oc(CN(Cc3coc(C)n3)C3=NOC4(CCN(C)CC4)N3)nc2c1 [Compound I-088] | 10 to 100
23 | Cc1ccc(CN(Cc2ccc(OCC(C)C)cc2)C2=NOC3(CCNCC3)N2)cn1 [Compound I-078] | 100 to 500
24 | CC(C)COc1ccc(CCC2=NOC3(CCN(C)CC3)N2Cc2ccc(F)cc2)cc1 [Compound I-008] | 100 to 500
25 | CCCCOc1ccc(CN(Cc2cnn(C)n2)C2=NOC3(CCN(C)CC3)N2)c(F)c1 [Compound I-112] | < 10
26 | Cc1nc(CN(Cc2ccc(OCC3CC3)cc2)C2=NOC3(CCN(C)CC3)N2)co1 [Compound I-079] | < 10
27 | CC(C)COc1ccc(CN(Cc2ccn(C)n2)C2=NC(=O)C3(CCN(C)CC34CC4)N2)cc1 (racemic) [Compound I-043] | 10 to 100
28 | Cc1nc(CN(Cc2ccc(OCC(F)(F)C(F)F)cc2)C2=NOC3(CCN(C)CC3)N2)co1 [Compound I-064] | < 10
29 | CCCCc1ccc(CN(Cc2coc(C)n2)C2=NOC3(CCN(C)CC3)N2)cc1 [Compound I-077] | < 10
30 | Cc1cc(CN(Cc2ccc(OCC(C)C)cc2)C2=NOC3(CCN(C)CC3)N2)co1 [Compound I-070] | < 10
31 | Cc1ccc2cc(CN(Cc3coc(C)n3)C3=NOC4(CCN(C)CC4)N3)sc2c1 [Compound I-101] | < 10
32 | CCOCc1ccc(CN(Cc2coc(C)n2)C2=NOC3(CCN(C)CC3)N2)cc1 [Compound I-124] | 10 to 100
33 | Cc1nc(CN(Cc2ccc(OCC(C)C)cc2)C2=NOC3(CCNCC3)N2)co1 [Compound I-048] | < 10
